The results in this text go back to US20160355530A1, “HEPATITIS C INHIBITORS AND USES THEREOF” (AbbVie Inc., priority 2010, published 2016).

Assay [1] deals with T1, HCV NS5B polymerase 1a-H77 (Hepatitis C virus genotype 1a, UniProt P27958).
T1 construct: six-histidine tag; made in house; host or cells: E. coli
Description: biochemical. As to conditions: enzyme, strain 1a H77; read-out: HCV Polymerase Strain 1a H77 IC50. Set-up: species or system HCV genotype 1a. The procedure, abridged: (§1)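 Recombinant NS5B (residues 1–570, His-tagged, E. coli-expressed) copied 5 nM of a 2.1 kb HCV 1b negative-strand 3′-end RNA template with 20 μM CTP, 20 μM ATP and 0.284 μM [3H]UTP for 3 h at 30 °C. Spermine-precipitated RNA was filter-captured and counted, and IC50 was fitted by nonlinear regression.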

In assay [2] the target is T2, HCV NS5B polymerase 1a-H77-C316Y (Hepatitis C virus genotype 1a, UniProt P27958, C2736Y).
T2 construct: six-histidine tag; made in house; host or cells: E. coli
Description: biochemical. The arrangement: species or system HCV genotype 1a. The procedure, abridged:
as §1

Assay [3] has as its system HCV NS5B polymerase 1a-H77-C316Y. Description: biochemical. The arrangement: species or system HCV genotype 1a. As to conditions: ratio of enzyme IC50s, 1a H77-C316Y / 1a H77. The procedure, abridged: as §1
In assay [4] the target is T3, HCV NS5B polymerase 1b BK strain (Hepatitis C virus genotype 1b, UniProt P26663).
T3 construct: six-histidine tag; made in house; host or cells: E. coli
Description: HCV NS5B polymerase enzymatic inhibition assay, strain 1b BK. As to conditions: enzyme, strain 1b BK; read-out: HCV Polymerase Strain 1b BK IC50. In kind it is biochemical. The procedure, abridged: as §1

Assay [5] has as its system HCV 1a-H77 subgenomic replicon. Description: microbe, parasite or virus in culture. In kind it is cell-based, HCV genotype 1a. The conditions noted are these: Hepatitis C virus, stable replicon.
Assay [6] deals with HCV 1b-BB7 subgenomic replicon. Description: microbe, parasite or virus in culture. As to conditions: Hepatitis C virus, stable replicon. In kind it is cell-based, HCV genotype 1b.
The test system of assay [7] is chimeric replicon with 2a-J6CF-derived NS5B. Description: microbe, parasite or virus in culture. The conditions noted are these: Hepatitis C virus, read-out: 2a chimera 5% FBS EC50. In kind it is cell-based, HCV genotype 2a.
For assay [8], the system named is chimeric replicon with genotype 2b NS5B. Description: microbe, parasite or virus in culture. In kind it is cell-based, HCV genotype 2b. The conditions noted are these: Hepatitis C virus, read-out: 2b chimera 5% FBS EC50.
For assay [9], the system named is chimeric replicon with genotype 3a NS5B. Description: microbe, parasite or virus in culture. In kind it is cell-based, HCV genotype 3a. The conditions noted are these: Hepatitis C virus, read-out: 3a chimera 5% FBS EC50.
In assay [10] the test system is chimeric replicon with genotype 4a NS5B. Description: microbe, parasite or virus in culture. In kind it is cell-based, HCV genotype 4a. The conditions noted are these: Hepatitis C virus, read-out: 4a chimera 5% FBS EC50.
Setting [11] is: 5% FBS, absence of human plasma, read-out: Stable Replicon 1a H77 5% FBS EC50.
[12] abbreviates: strain 1a H77, 5% FBS + 40% human plasma, read-out: 1a H77 5% FBS + 40% Human Plasma EC50.
The mark [13] stands for this setting: strain 1a H77, 5% FBS, no human plasma, read-out: 1a H77 5% FBS EC50.
The mark [14] stands for this setting: strain 1a H77, 5% FBS, read-out: 1a H77 5% FBS EC50.
Where [15] appears, read: strain 1b BB7, 5% FBS + 40% human plasma, read-out: 1b BB7 5% FBS + 40% Human Plasma EC50.
[16] abbreviates: strain 1b BB7, 5% FBS, no human plasma, read-out: 1b BB7 5% FBS EC50.
Where [17] appears, read: strain 1b BB7, 5% FBS, read-out: 1b BB7 5% FBS EC50.

Like-named read-outs stand apart in the source and are kept apart here.

T1 sequence (P27958 2421-2990): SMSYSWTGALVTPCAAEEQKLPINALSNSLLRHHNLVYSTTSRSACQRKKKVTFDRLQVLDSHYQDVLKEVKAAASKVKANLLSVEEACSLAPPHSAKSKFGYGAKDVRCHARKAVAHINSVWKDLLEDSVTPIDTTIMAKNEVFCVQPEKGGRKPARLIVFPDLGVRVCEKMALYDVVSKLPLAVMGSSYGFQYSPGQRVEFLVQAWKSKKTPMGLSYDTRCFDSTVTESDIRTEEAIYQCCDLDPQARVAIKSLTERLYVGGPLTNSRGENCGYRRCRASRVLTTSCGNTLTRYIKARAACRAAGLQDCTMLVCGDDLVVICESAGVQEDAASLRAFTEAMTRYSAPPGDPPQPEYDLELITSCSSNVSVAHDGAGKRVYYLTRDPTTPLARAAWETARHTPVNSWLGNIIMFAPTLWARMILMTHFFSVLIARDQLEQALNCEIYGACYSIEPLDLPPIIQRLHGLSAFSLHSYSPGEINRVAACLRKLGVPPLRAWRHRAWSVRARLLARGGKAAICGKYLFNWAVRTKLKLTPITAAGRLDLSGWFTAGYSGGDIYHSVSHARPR
T3 sequence (P26663 2420-2989): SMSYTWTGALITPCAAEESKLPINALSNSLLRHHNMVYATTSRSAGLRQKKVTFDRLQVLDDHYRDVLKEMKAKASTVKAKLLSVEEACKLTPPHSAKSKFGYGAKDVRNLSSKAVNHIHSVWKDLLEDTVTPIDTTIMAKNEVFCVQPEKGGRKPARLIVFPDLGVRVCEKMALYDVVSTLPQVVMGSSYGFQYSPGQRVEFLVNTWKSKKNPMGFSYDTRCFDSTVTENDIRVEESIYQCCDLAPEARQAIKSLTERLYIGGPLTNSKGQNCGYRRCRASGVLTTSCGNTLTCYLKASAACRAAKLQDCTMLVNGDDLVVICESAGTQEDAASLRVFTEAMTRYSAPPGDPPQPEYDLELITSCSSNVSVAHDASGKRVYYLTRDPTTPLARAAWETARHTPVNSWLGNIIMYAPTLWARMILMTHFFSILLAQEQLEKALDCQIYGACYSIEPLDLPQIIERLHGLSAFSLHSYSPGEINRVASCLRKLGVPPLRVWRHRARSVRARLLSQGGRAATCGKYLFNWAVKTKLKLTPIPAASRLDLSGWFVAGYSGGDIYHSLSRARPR
T2 sequence (P27958 2421-2990 C2736Y): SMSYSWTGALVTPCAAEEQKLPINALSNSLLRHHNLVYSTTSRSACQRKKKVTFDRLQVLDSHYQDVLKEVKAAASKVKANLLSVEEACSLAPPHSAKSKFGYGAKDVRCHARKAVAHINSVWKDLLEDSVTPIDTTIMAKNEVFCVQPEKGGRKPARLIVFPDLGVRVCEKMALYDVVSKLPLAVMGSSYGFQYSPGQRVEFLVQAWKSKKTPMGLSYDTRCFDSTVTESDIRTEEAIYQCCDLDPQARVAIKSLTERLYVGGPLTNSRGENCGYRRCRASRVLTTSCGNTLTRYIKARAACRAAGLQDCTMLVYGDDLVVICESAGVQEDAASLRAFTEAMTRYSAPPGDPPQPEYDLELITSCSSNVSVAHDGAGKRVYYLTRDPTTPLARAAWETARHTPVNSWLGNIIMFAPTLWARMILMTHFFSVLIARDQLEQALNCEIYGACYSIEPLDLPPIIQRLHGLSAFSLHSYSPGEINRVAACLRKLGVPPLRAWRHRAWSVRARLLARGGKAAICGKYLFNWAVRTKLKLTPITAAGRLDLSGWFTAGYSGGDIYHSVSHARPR

For the compound `CS(=O)(=O)N(CC1CCOCC1)c1cc2oc(-c3ccc(F)cc3)c(-c3ncc[nH]3)c2cc1C1CC1` [Example 38, N-[5-cyclopropyl-2-(4-fluorophenyl)-3-(1H-imidazol-2-yl)-1-benzofuran-6-yl]-N-(tetrahydro-2H-pyran-4-ylmethyl)methanesulfonamide], the IC50 in [1] turned out to be 5 nM; in assay [2] it was 148 nM; in [4], 33 nM. Further, in assay [3], the “C316Y/1a Fold Resistance” value is 30 fold. Also, the EC50 in [5] (setting [11]) was 10.2 nM; in assay [5] (setting [12]) it was 117 nM; in [5] (setting [13]), 10.2 nM; in [5] (setting [14]), 10.2 nM; in assay [6] (setting [15]) it was 245 nM; in assay [6] (setting [16]), 12.7 nM. Also, the EC50 in assay [6] (setting [17]) came to 12.7 nM; in assay [7], 88.2 nM; in assay [8], 81.4 nM; in assay [9] it was 25.2 nM; in [10], 161 nM.

Take `CCCCN(c1cc2oc(-c3ccc(F)cc3)c(-c3ncc[nH]3)c2cc1C1CC1)S(C)(=O)=O` [Example 39, N-butyl-N-[5-cyclopropyl-2-(4-fluorophenyl)-3-(1H-imidazol-2-yl)-1-benzofuran-6-yl]methanesulfonamide]: the IC50 stood at 5 nM in assay [1], 78 nM in assay [2] and 17 nM in assay [4]. Further, the “C316Y/1a Fold Resistance” value in assay [3] amounted to 16 fold. Moreover, the EC50 was 33.1 nM in assay [5] (setting [11]); 132 nM in [5] (setting [12]); 33.1 nM in [5] (setting [13]); 33.1 nM in assay [5] (setting [14]); 59 nM in [6] (setting [15]); 29.7 nM in assay [6] (setting [16]). For the same compound, the EC50 is 29.7 nM in assay [6] (setting [17]); 105 nM in [7]; 133 nM in [8]; 28.4 nM in assay [9]; 187 nM in assay [10].

With `CS(=O)(=O)N(CCCC(F)(F)F)c1cc2oc(-c3ccc(F)cc3)c(-c3ncc[nH]3)c2cc1C1CC1` [Example 44, N-[5-cyclopropyl-2-(4-fluorophenyl)-3-(1H-imidazol-2-yl)-1-benzofuran-6-yl]-N-(4,4,4-trifluorobutyl)methanesulfonamide], the figures for the IC50 in assay [1], in assay [2] and in assay [4] were 5 nM, 105 nM and 19 nM, respectively. In addition, the “C316Y/1a Fold Resistance” value in assay [3] was 21 fold. Besides, the EC50 in assay [5] (setting [11]) is 23.7 nM; in assay [5] (setting [12]), 420 nM; in assay [5] (setting [13]) it was 23.7 nM; in [5] (setting [14]), 23.7 nM; in assay [6] (setting [15]), 81 nM; in assay [6] (setting [16]), 16.1 nM. The EC50 turned out to be 16.1 nM in [6] (setting [17]); 93.7 nM in [7]; 97.7 nM in assay [8]; 15.1 nM in [9]; 176 nM in [10].

Regarding `CC(=O)OCCCCCN(c1cc2oc(-c3ccc(F)cc3)c(-c3ncc[nH]3)c2cc1C1CC1)S(C)(=O)=O` [Example 46, 5-{[5-cyclopropyl-2-(4-fluorophenyl)-3-(1H-imidazol-2-yl)-1-benzofuran-6-yl](methylsulfonyl)amino}pentyl acetate], the IC50 in [1] was determined as 4.5 nM; in assay [2], 98 nM; in assay [4] it was 11 nM. The “C316Y/1a Fold Resistance” value in [3] worked out at 22 fold. Also, the EC50 in assay [5] (setting [11]) was determined as 4.5 nM; in assay [5] (setting [12]), 112 nM; in [5] (setting [13]), 4.5 nM; in assay [5] (setting [14]), 4.5 nM; in assay [6] (setting [15]), 36 nM; in assay [6] (setting [16]) it was 4.7 nM. Besides, the EC50 in [6] (setting [17]) turned out to be 4.6 nM; in [7], 27.5 nM; in assay [8], 23.7 nM; in assay [9], 2.7 nM; in assay [10] it was 31.1 nM.

As to `CS(=O)(=O)N(CCC1CCOCC1)c1cc2oc(-c3ccc(F)cc3)c(-c3ncc[nH]3)c2cc1C1CC1` [Example 48, N-[5-cyclopropyl-2-(4-fluorophenyl)-3-(1H-imidazol-2-yl)-1-benzofuran-6-yl]-N-[2-(tetrahydro-2H-pyran-4-yl)ethyl]methanesulfonamide], the values for the IC50 in [1], in assay [2] and in assay [4] were 7.7 nM, 74 nM and 23 nM, respectively. For the same compound, the “C316Y/1a Fold Resistance” value in [3] was determined as 10 fold. Moreover, the EC50 worked out at 11.4 nM in assay [5] (setting [11]); 147 nM in assay [5] (setting [12]); 11.4 nM in assay [5] (setting [13]); 11.4 nM in assay [5] (setting [14]); 75 nM in assay [6] (setting [15]); 8.4 nM in [6] (setting [16]). Besides, the EC50 in assay [6] (setting [17]) was 8.5 nM; in [7] it was 83.7 nM; in [8], 69.2 nM; in assay [9] it was 10 nM; in assay [10], 46.4 nM.

As for `CS(=O)(=O)N(CC1CC1)c1cc2oc(-c3ccc(F)cc3)c(-c3ncc[nH]3)c2cc1C1CC1` [Example 53, N-[5-cyclopropyl-2-(4-fluorophenyl)-3-(1H-imidazol-2-yl)-1-benzofuran-6-yl]-N-(cyclopropylmethyl)methanesulfonamide], the IC50 in assay [1] is 4.9 nM; in assay [2] it was 223 nM; in assay [4], 245 nM. Also, the “C316Y/1a Fold Resistance” value in [3] turned out to be 46 fold. Besides, the EC50 in [5] (setting [11]) was 111 nM; in assay [5] (setting [12]), 1010 nM; in assay [5] (setting [13]) it was 111 nM; in assay [5] (setting [14]), 111 nM; in assay [6] (setting [15]), 224 nM; in assay [6] (setting [16]), 52 nM. The EC50 in assay [6] (setting [17]) stood at 52 nM; in assay [7] it was 154 nM; in [8], 267 nM; in assay [9], 23 nM; in assay [10] it was 379 nM.

In the case of `CC(C)=CCN(c1cc2oc(-c3ccc(F)cc3)c(-c3ncc[nH]3)c2cc1C1CC1)S(C)(=O)=O` [Example 54, N-[5-cyclopropyl-2-(4-fluorophenyl)-3-(1H-imidazol-2-yl)-1-benzofuran-6-yl]-N-(3-methylbut-2-en-1-yl)methanesulfonamide], the IC50 in [1] is 4.5 nM; in assay [2], 192 nM; in assay [4], 293 nM. Moreover, in assay [3], the “C316Y/1a Fold Resistance” value was determined as 43 fold. The EC50 in assay [5] (setting [11]) came out at 89 nM; in [5] (setting [12]), 935 nM; in assay [5] (setting [13]), 89 nM; in [5] (setting [14]) it was 89 nM; in [6] (setting [15]), 734 nM; in assay [6] (setting [16]), 64 nM. Moreover, the EC50 in assay [6] (setting [17]) worked out at 64 nM; in assay [7], 267 nM; in [8] it was 601 nM; in [9], 51 nM; in assay [10] it was 635 nM.

Take `CS(=O)(=O)N(CC1CC1(F)F)c1cc2oc(-c3ccc(F)cc3)c(-c3ncc[nH]3)c2cc1C1CC1` (stereo not drawn) [Example 55, N-[5-cyclopropyl-2-(4-fluorophenyl)-3-(1H-imidazol-2-yl)-1-benzofuran-6-yl]-N-[(2,2-difluorocyclopropyl)methyl]methanesulfonamide]: the IC50 in assay [1] came to 5 nM; in [2] it was 366 nM; in assay [4], 28 nM. For the same compound, in assay [3], the “C316Y/1a Fold Resistance” value was determined as 73 fold. In addition, the EC50 in assay [5] (setting [11]) was 68 nM; in assay [5] (setting [12]) it was 1020 nM; in [5] (setting [13]), 68 nM; in assay [5] (setting [14]), 68 nM; in assay [6] (setting [15]) it was 363 nM; in [6] (setting [16]) it was 37 nM. For the same compound, the EC50 stood at 37 nM in [6] (setting [17]); 184 nM in assay [7]; 348 nM in [8]; 18 nM in [9]; 557 nM in assay [10].
